Test results taken from patent publication US10358434B2, “2-(3-pyridinyl)-1H-benzimidazole derivative compound and medicament containing same” (NIHON MEDI-PHYSICS CO., LTD., priority 2014, dated 2019).

What was measured:
[1] = Plasma stability evaluation (TLC analysis); type: in vitro ADME; conditions: 37° C., 60 minutes, TLC analysis
Method in brief: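 Radiolabelled compounds were incubated in heparin-treated pooled normal human plasma at 37° C for 60 minutes. After methanol deproteinization and centrifugation, stability was assessed by TLC under the conditions used for each compound's synthesis.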

[2] = test system: human adrenal gland section expressing aldosterone-producing adenoma; experiment: In vitro autoradiography using human adrenal adenoma; type: binding; conditions: section of FIG. 17(b)
Method in brief: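 Frozen 7-μm sections of human adrenal bearing aldosterone-producing adenoma were immersed 10 min in radioligand (5-33 kBq/mL) in PBS with 1% fatty-acid-free BSA, washed, then exposed to imaging plates for 16-20 h. Equal-area ROI PSL in adenoma (B2) versus normal cortex (B1) gave B2/B1, corrected for nuclide half-life, added activity and exposure time.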

[3] = In vivo kinetics experiment (radioactivity distribution); set-up: species or system Wistar male rat; conditions: rat i.v., mean ± SD
Method in brief: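 Male Wistar rats (9 weeks) under isoflurane received approximately 1 to 3.7 MBq radiotracer in saline with 1 w/v % ascorbic acid by tail-vein injection. At 10, 30 and 60 min, rats were exsanguinated; blood, organs and remaining body weighed and counted, giving % ID/g and adrenal-to-tissue ratios.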

With `CCn1c(-c2cncc(Cn3ccnc3)c2)nc2ccc([123I])cc21` [[^123I] 608, 2-[5-{(1H-imidazol-1-yl)methyl}pyridin-3-yl]-1-ethyl-6-[^123I]iodo-1H-benzo[d]imidazole] the “Radiochemical purity after incubation in human plasma” value [1] was 88%, the B2/B1 accumulation ratio [2] was 1.08 and the “B2 (PSL value, aldosterone-producing adenoma)” value ([2]; site 71b) was 3580. For the same compound, the “B1 (PSL value, normal adrenal cortex)” value ([2]; site 72b) was 3303, the “Adrenal gland/blood ratio of radioactivity accumulation” value (“Adrenal gland/blood ratio” below) ([3]; 10 min after administration) was 75.29 ± 24.87 and the “Adrenal gland/fat ratio of radioactivity accumulation” value (“Adrenal gland/fat ratio” for short) ([3]; 10 min after administration) was 90.02 ± 14.66. For the same compound, the “Adrenal gland/kidney ratio of radioactivity accumulation” value (“Adrenal gland/kidney ratio” below) ([3]; 10 min after administration) was 4.95 ± 1.61, the “Adrenal gland/liver ratio of radioactivity accumulation” value (from here on “Adrenal gland/liver ratio”) ([3]; 10 min after administration) was 2.86 ± 0.42 and the “Adrenal gland/muscle ratio of radioactivity accumulation” value (from here on “Adrenal gland/muscle ratio”) ([3]; 10 min after administration) was 57.35 ± 15.85. The “Adrenal gland/small intestine ratio of radioactivity accumulation” value (shortened to “Adrenal gland/small intestine ratio”) ([3]; 10 min after administration) was 5.04 ± 0.35, the “Radioactivity distribution Adrenal gland” value ([3]; 10 min after administration) was 8.76 ± 2.34 % ID/g and the “Radioactivity distribution Bladder (including urine)” value (“Radioactivity distribution Bladder” for short) ([3]; 10 min after administration) was 0.82 ± 0.43 % ID/g. For the same compound, the “Radioactivity distribution Blood” value ([3]; 10 min after administration) was 0.12 ± 0.01 % ID/g, the “Radioactivity distribution Fat” value ([3]; 10 min after administration) was 0.10 ± 0.01 % ID/g and the “Radioactivity distribution Femur” value ([3]; 10 min after administration) was 0.82 ± 0.05 % ID/g. The “Radioactivity distribution Heart” value ([3]; 10 min after administration) was 0.74 ± 0.09 % ID/g, the “Radioactivity distribution Kidney” value ([3]; 10 min after administration) was 1.79 ± 0.11 % ID/g and the “Radioactivity distribution Large intestine” value ([3]; 10 min after administration) was 0.12 ± 0.01 % ID/g. For the same compound, the “Radioactivity distribution Liver” value ([3]; 10 min after administration) was 3.03 ± 0.36 % ID/g, the “Radioactivity distribution Lung” value ([3]; 10 min after administration) was 1.11 ± 0.11 % ID/g and the “Radioactivity distribution Muscle (lower limbs)” value ([3]; 10 min after administration) was 0.15 ± 0.00 % ID/g. For the same compound, the “Radioactivity distribution Remaining whole body” value ([3]; 10 min after administration) was 0.29 ± 0.05 % ID/g, the “Radioactivity distribution Small intestine” value ([3]; 10 min after administration) was 1.74 ± 0.42 % ID/g and the “Radioactivity distribution Spleen” value ([3]; 10 min after administration) was 3.79 ± 1.44 % ID/g. The “Radioactivity distribution Stomach” value ([3]; 10 min after administration) was 0.53 ± 0.16 % ID/g, the “Radioactivity distribution Testis” value ([3]; 10 min after administration) was 0.07 ± 0.01 % ID/g and the “Radioactivity distribution Whole brain” value ([3]; 10 min after administration) was 0.03 ± 0.01 % ID/g. The “Adrenal gland/blood ratio” value ([3]; 30 min after administration) was 172.72 ± 25.00, the “Adrenal gland/fat ratio” value ([3]; 30 min after administration) was 103.83 ± 16.66 and the “Adrenal gland/kidney ratio” value ([3]; 30 min after administration) was 5.90 ± 0.47. The “Adrenal gland/liver ratio” value ([3]; 30 min after administration) was 10.03 ± 1.46, the “Adrenal gland/muscle ratio” value ([3]; 30 min after administration) was 65.62 ± 16.66 and the “Adrenal gland/small intestine ratio” value ([3]; 30 min after administration) was 3.39 ± 0.42. For the same compound, the “Radioactivity distribution Adrenal gland” value ([3]; 30 min after administration) was 10.75 ± 1.11 % ID/g, the “Radioactivity distribution Bladder” value ([3]; 30 min after administration) was 2.70 ± 1.51 % ID/g and the “Radioactivity distribution Blood” value ([3]; 30 min after administration) was 0.06 ± 0.01 % ID/g. The “Radioactivity distribution Fat” value ([3]; 30 min after administration) was 0.10 ± 0.01 % ID/g, the “Radioactivity distribution Femur” value ([3]; 30 min after administration) was 1.17 ± 0.02 % ID/g and the “Radioactivity distribution Heart” value ([3]; 30 min after administration) was 0.76 ± 0.16 % ID/g. The “Radioactivity distribution Kidney” value ([3]; 30 min after administration) was 1.82 ± 0.08 % ID/g, the “Radioactivity distribution Large intestine” value ([3]; 30 min after administration) was 0.11 ± 0.00 % ID/g and the “Radioactivity distribution Liver” value ([3]; 30 min after administration) was 1.08 ± 0.13 % ID/g. The “Radioactivity distribution Lung” value ([3]; 30 min after administration) was 1.14 ± 0.08 % ID/g, the “Radioactivity distribution Muscle (lower limbs)” value ([3]; 30 min after administration) was 0.17 ± 0.03 % ID/g and the “Radioactivity distribution Remaining whole body” value ([3]; 30 min after administration) was 0.30 ± 0.00 % ID/g. The “Radioactivity distribution Small intestine” value ([3]; 30 min after administration) was 3.18 ± 0.18 % ID/g, the “Radioactivity distribution Spleen” value ([3]; 30 min after administration) was 4.81 ± 0.73 % ID/g and the “Radioactivity distribution Stomach” value ([3]; 30 min after administration) was 1.34 ± 0.66 % ID/g. For the same compound, the “Radioactivity distribution Testis” value ([3]; 30 min after administration) was 0.11 ± 0.00 % ID/g, the “Radioactivity distribution Whole brain” value ([3]; 30 min after administration) was 0.02 ± 0.00 % ID/g and the “Adrenal gland/blood ratio” value ([3]; 60 min after administration) was 345.58 ± 116.00. For the same compound, the “Adrenal gland/fat ratio” value ([3]; 60 min after administration) was 158.96 ± 131.25, the “Adrenal gland/kidney ratio” value ([3]; 60 min after administration) was 10.46 ± 6.81 and the “Adrenal gland/liver ratio” value ([3]; 60 min after administration) was 25.91 ± 10.25. For the same compound, the “Adrenal gland/muscle ratio” value ([3]; 60 min after administration) was 113.23 ± 76.79, the “Adrenal gland/small intestine ratio” value ([3]; 60 min after administration) was 3.39 ± 1.14 and the “Radioactivity distribution Adrenal gland” value ([3]; 60 min after administration) was 15.22 ± 7.58 % ID/g. The “Radioactivity distribution Bladder” value ([3]; 60 min after administration) was 2.67 ± 0.43 % ID/g, the “Radioactivity distribution Blood” value ([3]; 60 min after administration) was 0.04 ± 0.01 % ID/g and the “Radioactivity distribution Fat” value ([3]; 60 min after administration) was 0.11 ± 0.04 % ID/g. The “Radioactivity distribution Femur” value ([3]; 60 min after administration) was 1.28 ± 0.07 % ID/g, the “Radioactivity distribution Heart” value ([3]; 60 min after administration) was 0.72 ± 0.09 % ID/g and the “Radioactivity distribution Kidney” value ([3]; 60 min after administration) was 1.55 ± 0.21 % ID/g. The “Radioactivity distribution Large intestine” value ([3]; 60 min after administration) was 0.16 ± 0.07 % ID/g, the “Radioactivity distribution Liver” value ([3]; 60 min after administration) was 0.57 ± 0.06 % ID/g and the “Radioactivity distribution Lung” value ([3]; 60 min after administration) was 0.94 ± 0.08 % ID/g. For the same compound, the “Radioactivity distribution Muscle (lower limbs)” value ([3]; 60 min after administration) was 0.15 ± 0.03 % ID/g, the “Radioactivity distribution Remaining whole body” value ([3]; 60 min after administration) was 0.28 ± 0.01 % ID/g and the “Radioactivity distribution Small intestine” value ([3]; 60 min after administration) was 4.35 ± 0.69 % ID/g. The “Radioactivity distribution Spleen” value ([3]; 60 min after administration) was 4.13 ± 1.21 % ID/g, the “Radioactivity distribution Stomach” value ([3]; 60 min after administration) was 1.15 ± 0.26 % ID/g and the “Radioactivity distribution Testis” value ([3]; 60 min after administration) was 0.09 ± 0.01 % ID/g. The “Radioactivity distribution Whole brain” value ([3]; 60 min after administration) was 0.02 ± 0.00 % ID/g.
